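96-well plates; 48 h exposure; 5 concentrations. Endpoints by linear interpolation between flanking doses. Not reached: highest tested concentration assigned. At the TGI there is no net growth.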

The record followed here is PubChem BioAssay (NCI).

Test systems include 786-0 renal; HCT-15 colon; MDA-MB-435; NCI/ADR-RES ovarian; OVCAR-5 ovarian; OVCAR-8 ovarian; RPMI-8226 leukemia; SF-268 CNS; T-47D breast; TK-10 renal; UACC-62 melanoma.
What all share (assay): NCI anticancer screen, dose series, 48 h

`NS(=O)(=O)c1cc2c(cc1Cl)NC(CCC(=O)O)=NS2(=O)=O`: the TGI with 786-0 renal, with HCT-15 colon, with MDA-MB-435, in the assay with NCI/ADR-RES ovarian, with OVCAR-5 ovarian and in the assay with OVCAR-8 ovarian was more than 100 µM throughout. The TGI in the assay with RPMI-8226 leukemia, in the assay on SF-268 CNS, with T-47D breast, in the assay on TK-10 renal and in the assay with UACC-62 melanoma was more than 100 µM in each case.

Turning to `CC1OC(OC2C(OC(=O)[C@]34CCC(C)(C)C[C@H]3C3=CC[C@@H]5[C@@]6(C)CC[C@H](OC7OC(C(=O)O)C(O)C(O)C7O)C(C)(C)[C@@H]6CC[C@@]5(C)[C@]3(C)C[C@H]4O)OCC(O)C2O)C(O)C(OC2OCC(O)(CO)C2O)C1OC1OCC(O)C(O)C1O` (stereo not given in full), the TGI with 786-0 renal turned out to be 24.7 µM; with HCT-15 colon, 30 µM; in the assay on MDA-MB-435 it was 20.7 µM; in the assay on NCI/ADR-RES ovarian it was 27.9 µM; in the assay on OVCAR-5 ovarian, 22.9 µM; in the assay on OVCAR-8 ovarian, 33.4 µM. For the same compound, the TGI in the assay with RPMI-8226 leukemia came to 26 µM; in the assay on SF-268 CNS it was 33.7 µM; in the assay on T-47D breast, 26.4 µM; with UACC-62 melanoma, 31 µM.

Turning to `CCOC(=O)c1nc2c(nc1C(=O)OCC)C(=O)c1ccccc1C2=O`, the TGI was 6.33 µM with 786-0 renal; more than 34.4 µM in the assay with HCT-15 colon; 0.804 µM in the assay on MDA-MB-435; more than 35.1 µM with NCI/ADR-RES ovarian; 2.24 µM with OVCAR-5 ovarian; 6.56 µM in the assay with OVCAR-8 ovarian. Also, the TGI with RPMI-8226 leukemia is 6.87 µM; in the assay with SF-268 CNS, 7.62 µM; in the assay on T-47D breast, more than 62.8 µM; in the assay with TK-10 renal, 8.83 µM; with UACC-62 melanoma it was 0.956 µM.

Regarding `Cc1ccc2c(c1)C(=O)C1(Cc3ccccc3C1=O)C2` (stereo not given), the TGI in the assay on 786-0 renal, in the assay with HCT-15 colon, in the assay on MDA-MB-435, with NCI/ADR-RES ovarian, in the assay with OVCAR-5 ovarian and in the assay with OVCAR-8 ovarian was more than 100 µM each time. The TGI in the assay on RPMI-8226 leukemia, in the assay on SF-268 CNS, with T-47D breast, in the assay on TK-10 renal and in the assay with UACC-62 melanoma was more than 100 µM in each case.

Consider `CC(=O)Nc1nc(C#N)[nH]c1C#N`, for which the TGI in the assay on 786-0 renal, with HCT-15 colon, with MDA-MB-435, in the assay on NCI/ADR-RES ovarian, in the assay on OVCAR-5 ovarian and with OVCAR-8 ovarian was more than 100 µM throughout. Besides, the TGI in the assay with RPMI-8226 leukemia, in the assay with SF-268 CNS, in the assay with T-47D breast, in the assay on TK-10 renal and with UACC-62 melanoma was more than 100 µM throughout.

On to `O=C(O)/C=C(/C(=O)O)C12CCN3CC4=CCOC5CC(=O)NC1C5C4CC32` (stereo not given), for which the TGI with 786-0 renal, in the assay on HCT-15 colon, with MDA-MB-435, with NCI/ADR-RES ovarian, in the assay with OVCAR-5 ovarian and in the assay with OVCAR-8 ovarian was more than 100 µM in each case. Besides, the TGI with RPMI-8226 leukemia, with SF-268 CNS, with T-47D breast, in the assay with TK-10 renal and with UACC-62 melanoma was more than 100 µM throughout.

Take `Cc1c(S(=O)(=O)c2ccccc2)c(N)n(CCN(C)C)c1C`: the TGI in the assay on 786-0 renal, in the assay with HCT-15 colon, in the assay with MDA-MB-435, in the assay on NCI/ADR-RES ovarian, in the assay on OVCAR-5 ovarian and in the assay with OVCAR-8 ovarian was more than 100 µM throughout. Further, the TGI in the assay with RPMI-8226 leukemia, in the assay on SF-268 CNS, in the assay on T-47D breast, in the assay on TK-10 renal and with UACC-62 melanoma was more than 100 µM in each case.

Consider `CS(=O)c1ncc2c(n1)-c1ccccc1OC2` (stereo not given), for which the TGI in the assay with 786-0 renal, with HCT-15 colon, in the assay with MDA-MB-435, in the assay with NCI/ADR-RES ovarian, in the assay on OVCAR-5 ovarian and in the assay with OVCAR-8 ovarian was more than 100 µM throughout. The TGI in the assay on RPMI-8226 leukemia, in the assay on SF-268 CNS, with T-47D breast, in the assay on TK-10 renal and in the assay with UACC-62 melanoma was more than 100 µM throughout.

In the case of `COc1cccc2c1OC1(C=C2)Oc2ccccc2C(=O)N1C` (stereo not given), the TGI was more than 100 µM in the assay with 786-0 renal; more than 100 µM with HCT-15 colon; 59.8 µM in the assay on MDA-MB-435; 26.9 µM in the assay on NCI/ADR-RES ovarian; more than 100 µM with OVCAR-5 ovarian; 54.4 µM in the assay on OVCAR-8 ovarian. The TGI in the assay with RPMI-8226 leukemia was more than 100 µM; with SF-268 CNS, more than 100 µM; in the assay with T-47D breast it was 99 µM; with TK-10 renal, more than 100 µM; in the assay with UACC-62 melanoma, more than 100 µM.

`O=[N+]([O-])c1ccc(Oc2c(Cl)cc(S(=O)(=O)/N=C(\NO)Nc3ccc(Cl)cc3)cc2Cl)cc1`: the TGI in the assay with 786-0 renal was found to be 23.5 µM; in the assay on HCT-15 colon, 24.5 µM; in the assay on MDA-MB-435 it was 28 µM; with NCI/ADR-RES ovarian, 32.2 µM; in the assay with OVCAR-5 ovarian, 25.8 µM; with OVCAR-8 ovarian, 27.5 µM. Also, the TGI stood at 22.8 µM in the assay with RPMI-8226 leukemia; 35.3 µM in the assay on SF-268 CNS; 34.3 µM in the assay with T-47D breast; 23.2 µM in the assay with TK-10 renal; 24.1 µM in the assay with UACC-62 melanoma.

On to `O=c1[nH]c(=O)n(C2OC(CO)C(O)C2O)c2nc(-c3ccc(-c4ccccc4)cc3)cnc12` (stereo not given), for which the TGI with 786-0 renal, in the assay with HCT-15 colon, in the assay on MDA-MB-435, with NCI/ADR-RES ovarian, in the assay on OVCAR-5 ovarian and in the assay with OVCAR-8 ovarian was more than 100 µM in each case. In addition, the TGI in the assay on RPMI-8226 leukemia, with SF-268 CNS, in the assay on T-47D breast, with TK-10 renal and with UACC-62 melanoma was more than 100 µM in each case.

Regarding `CN1CSC(=S)N(c2c3ccccc3nc3ccc(Br)cc23)C1`, the TGI was 16.6 µM with 786-0 renal; 20.4 µM with HCT-15 colon; 26.5 µM in the assay on MDA-MB-435; 30.9 µM in the assay with NCI/ADR-RES ovarian; 31.6 µM with OVCAR-5 ovarian; more than 51.2 µM in the assay on OVCAR-8 ovarian. The TGI was 31.4 µM with RPMI-8226 leukemia; 27.4 µM in the assay on SF-268 CNS; 38.3 µM in the assay with T-47D breast; 21.9 µM with TK-10 renal; 27.4 µM in the assay with UACC-62 melanoma.

`O=C(O)c1ccccc1CC1Cc2ccccc2C1=O` (stereo not given): the TGI in the assay with 786-0 renal, with HCT-15 colon, in the assay on MDA-MB-435, in the assay with NCI/ADR-RES ovarian, in the assay with OVCAR-5 ovarian and in the assay on OVCAR-8 ovarian was more than 100 µM throughout. The TGI in the assay on RPMI-8226 leukemia, with SF-268 CNS, in the assay with T-47D breast, with TK-10 renal and in the assay with UACC-62 melanoma was more than 100 µM throughout.

On to `Cc1cn(C2CC(O)C(CO)O2)c(=O)[nH]c1=O` (stereo not given), for which the TGI in the assay with 786-0 renal was more than 5000 µM; with HCT-15 colon, more than 5000 µM; with MDA-MB-435, more than 5000 µM; in the assay on NCI/ADR-RES ovarian, more than 5000 µM; in the assay on OVCAR-5 ovarian, more than 5000 µM; in the assay with OVCAR-8 ovarian it was 4960 µM. For the same compound, the TGI in the assay with RPMI-8226 leukemia is more than 5000 µM; in the assay on SF-268 CNS, more than 5000 µM; with T-47D breast, more than 5000 µM; in the assay on TK-10 renal it was more than 5000 µM; in the assay on UACC-62 melanoma, 3680 µM.

As for `CSC(=S)N/N=C(\C)c1ccc(S(=O)(=O)N(C)c2ccccc2)cc1`, the TGI in the assay with 786-0 renal, in the assay with HCT-15 colon, with MDA-MB-435, in the assay with NCI/ADR-RES ovarian, in the assay on OVCAR-5 ovarian and with OVCAR-8 ovarian was more than 100 µM each time. Further, the TGI in the assay with RPMI-8226 leukemia, in the assay on SF-268 CNS, in the assay with T-47D breast, in the assay on TK-10 renal and in the assay on UACC-62 melanoma was more than 100 µM throughout.

`Cc1cc2c3c(nc4ccccc42)C(=O)c2ccccc2-c3n1`: the TGI in the assay with 786-0 renal is more than 100 µM; with HCT-15 colon, 16.8 µM; in the assay on MDA-MB-435, 3.11 µM; in the assay with NCI/ADR-RES ovarian, 38.5 µM; with OVCAR-5 ovarian it was more than 100 µM; in the assay on OVCAR-8 ovarian, 34.8 µM. For the same compound, the TGI is more than 100 µM in the assay with RPMI-8226 leukemia; more than 100 µM in the assay with SF-268 CNS; more than 100 µM in the assay on T-47D breast; more than 100 µM in the assay on TK-10 renal; 4.06 µM in the assay on UACC-62 melanoma.

Consider `O=C1c2ccccc2-c2c1c(-c1ccc(F)cc1)nc1ccc3ccccc3c21`, for which the TGI in the assay on 786-0 renal, in the assay on HCT-15 colon, in the assay with MDA-MB-435, in the assay with NCI/ADR-RES ovarian, in the assay on OVCAR-5 ovarian and with OVCAR-8 ovarian was more than 100 µM in each case. Besides, the TGI with RPMI-8226 leukemia, in the assay on SF-268 CNS, with T-47D breast and in the assay on UACC-62 melanoma was more than 100 µM throughout.

Turning to `CN(C)C1(N(C)C)Oc2c(c(=O)n(C)c(=O)n2C)C(c2ccc(Br)cc2)C1(F)F` (stereo not given), the TGI with 786-0 renal, in the assay with HCT-15 colon, in the assay on MDA-MB-435, in the assay with NCI/ADR-RES ovarian, with OVCAR-5 ovarian and with RPMI-8226 leukemia was more than 100 µM each time. For the same compound, the TGI with SF-268 CNS, in the assay with T-47D breast, in the assay with TK-10 renal and in the assay with UACC-62 melanoma was more than 100 µM each time.
